Experimental data: PubChem BioAssay (NCI)
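Each compound was tested at five concentrations against cells in 96-well plates for 48 hours. At the GI50, growth is halved. The concentration for full growth arrest is given as TGI.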

Key:
Test in all cases: NCI anticancer screen, dose series, 48 h
SF-268 CNS = tested on: SF-268 CNS
NCI/ADR-RES ovarian = tested on: NCI/ADR-RES ovarian
SW-620 colon = tested on: SW-620 colon
OVCAR-8 ovarian = tested on: OVCAR-8 ovarian
T-47D breast = tested on: T-47D breast
HS 578T breast = tested on: HS 578T breast
786-0 renal = tested on: 786-0 renal
SF-539 CNS = tested on: SF-539 CNS
HCT-116 colon = tested on: HCT-116 colon
SK-MEL-5 melanoma = tested on: SK-MEL-5 melanoma
OVCAR-5 ovarian = tested on: OVCAR-5 ovarian
PC-3 prostate = tested on: PC-3 prostate
UACC-257 melanoma = tested on: UACC-257 melanoma
MDA-MB-231 breast = tested on: MDA-MB-231 breast
CAKI-1 renal = tested on: CAKI-1 renal
MOLT-4 leukemia = tested on: MOLT-4 leukemia
SNB-75 CNS = tested on: SNB-75 CNS
HL-60(TB) leukemia = tested on: HL-60(TB) leukemia
HCT-15 colon = tested on: HCT-15 colon
SK-MEL-28 melanoma = tested on: SK-MEL-28 melanoma
OVCAR-3 ovarian = tested on: OVCAR-3 ovarian
HT29 colon = tested on: HT29 colon
MALME-3M melanoma = tested on: MALME-3M melanoma
A498 renal = tested on: A498 renal
MCF7 breast = tested on: MCF7 breast
UO-31 renal = tested on: UO-31 renal
A549 NSCLC = tested on: A549 NSCLC
DU-145 prostate = tested on: DU-145 prostate
ACHN renal = tested on: ACHN renal
M14 melanoma = tested on: M14 melanoma
IGROV1 ovarian = tested on: IGROV1 ovarian
U251 CNS = tested on: U251 CNS
RXF 393 renal = tested on: RXF 393 renal
K-562 leukemia = tested on: K-562 leukemia
TK-10 renal = tested on: TK-10 renal
NCI-H460 lung = tested on: NCI-H460 lung
SN12C renal = tested on: SN12C renal
NCI-H226 lung = tested on: NCI-H226 lung
SK-OV-3 ovarian = tested on: SK-OV-3 ovarian
OVCAR-4 ovarian = tested on: OVCAR-4 ovarian
RPMI-8226 leukemia = tested on: RPMI-8226 leukemia
NCI-H522 lung = tested on: NCI-H522 lung
HCC-2998 colon = tested on: HCC-2998 colon
KM12 colon = tested on: KM12 colon
SF-295 CNS = tested on: SF-295 CNS
SR leukemia = tested on: SR leukemia
UACC-62 melanoma = tested on: UACC-62 melanoma
HOP-62 NSCLC = tested on: HOP-62 NSCLC
COLO 205 colon = tested on: COLO 205 colon
MDA-MB-435 = tested on: MDA-MB-435
SNB-19 CNS = tested on: SNB-19 CNS
CCRF-CEM leukemia = tested on: CCRF-CEM leukemia
BT-549 breast = tested on: BT-549 breast
NCI-H23 lung = tested on: NCI-H23 lung

`COc1cc(C(=O)/C=C/c2cc(-c3ccc4c(c3)OCO4)n[nH]2)cc(OC)c1OC` gave a GI50 (SF-268 CNS) of 2450 nM, a TGI (SF-268 CNS) of 7640 nM and a GI50 (NCI/ADR-RES ovarian) of 2990 nM. The TGI (NCI/ADR-RES ovarian) was 12300 nM, the GI50 (SW-620 colon) was 1620 nM and the TGI (SW-620 colon) was 3800 nM. For the same compound, the GI50 (OVCAR-8 ovarian) was 2350 nM, the TGI (OVCAR-8 ovarian) was 6370 nM and the GI50 (T-47D breast) was 1510 nM. For the same compound, the TGI (T-47D breast) was 4630 nM, the GI50 (HS 578T breast) was 3140 nM and the TGI (HS 578T breast) was 20500 nM. The GI50 (786-0 renal) was 1840 nM, the TGI (786-0 renal) was 3460 nM and the GI50 (SF-539 CNS) was 1330 nM. It also gave a TGI (SF-539 CNS) of 2980 nM, a GI50 (HCT-116 colon) of 1900 nM and a TGI (HCT-116 colon) of 4630 nM. For the same compound, the GI50 (SK-MEL-5 melanoma) was 3320 nM, the TGI (SK-MEL-5 melanoma) was 13300 nM and the GI50 (OVCAR-5 ovarian) was 2630 nM. For the same compound, the TGI (OVCAR-5 ovarian) was 9600 nM, the GI50 (PC-3 prostate) was 1510 nM and the TGI (PC-3 prostate) was 4020 nM. For the same compound, the GI50 (UACC-257 melanoma) was 2950 nM, the TGI (UACC-257 melanoma) was 9460 nM and the GI50 (MDA-MB-231 breast) was 2080 nM. For the same compound, the TGI (MDA-MB-231 breast) was 6230 nM, the GI50 (CAKI-1 renal) was 1990 nM and the TGI (CAKI-1 renal) was 5650 nM. The GI50 (MOLT-4 leukemia) was 2710 nM, the TGI (MOLT-4 leukemia) was 8360 nM and the GI50 (SNB-75 CNS) was 2400 nM. It also gave a TGI (SNB-75 CNS) of 7270 nM, a GI50 (HL-60(TB) leukemia) of 2170 nM and a TGI (HL-60(TB) leukemia) of 6490 nM. It also gave a GI50 (HCT-15 colon) of 1950 nM, a TGI (HCT-15 colon) of 6750 nM and a GI50 (SK-MEL-28 melanoma) of 1920 nM. It also gave a TGI (SK-MEL-28 melanoma) of 4180 nM, a GI50 (OVCAR-3 ovarian) of 1710 nM and a TGI (OVCAR-3 ovarian) of 3500 nM. It also gave a GI50 (HT29 colon) of 2450 nM, a TGI (HT29 colon) of 6530 nM and a GI50 (MALME-3M melanoma) of 1850 nM. The TGI (MALME-3M melanoma) was 4690 nM, the GI50 (A498 renal) was 1750 nM and the TGI (A498 renal) was 4650 nM. It also gave a GI50 (MCF7 breast) of 1060 nM, a TGI (MCF7 breast) of 2880 nM and a GI50 (UO-31 renal) of 1340 nM. For the same compound, the TGI (UO-31 renal) was 2670 nM, the GI50 (A549 NSCLC) was 2130 nM and the TGI (A549 NSCLC) was 6230 nM. It also gave a GI50 (DU-145 prostate) of 2920 nM, a TGI (DU-145 prostate) of 9160 nM and a GI50 (ACHN renal) of 2200 nM. For the same compound, the TGI (ACHN renal) was 4950 nM, the GI50 (M14 melanoma) was 2910 nM and the TGI (M14 melanoma) was 9200 nM. For the same compound, the GI50 (IGROV1 ovarian) was 1990 nM, the TGI (IGROV1 ovarian) was 5720 nM and the GI50 (U251 CNS) was 1210 nM. It also gave a TGI (U251 CNS) of 2490 nM, a GI50 (RXF 393 renal) of 1310 nM and a TGI (RXF 393 renal) of 2940 nM. For the same compound, the GI50 (K-562 leukemia) was 2170 nM, the TGI (K-562 leukemia) was > 100000 nM and the GI50 (TK-10 renal) was 2900 nM. For the same compound, the TGI (TK-10 renal) was 7170 nM, the GI50 (NCI-H460 lung) was 1810 nM and the TGI (NCI-H460 lung) was 3770 nM. For the same compound, the GI50 (SN12C renal) was 2260 nM, the TGI (SN12C renal) was 6280 nM and the GI50 (NCI-H226 lung) was 1520 nM. The TGI (NCI-H226 lung) was 4250 nM, the GI50 (SK-OV-3 ovarian) was 4440 nM and the TGI (SK-OV-3 ovarian) was 14600 nM. It also gave a GI50 (OVCAR-4 ovarian) of 885 nM, a TGI (OVCAR-4 ovarian) of 4240 nM and a GI50 (RPMI-8226 leukemia) of 506 nM. For the same compound, the TGI (RPMI-8226 leukemia) was 2530 nM, the GI50 (NCI-H522 lung) was 1590 nM and the TGI (NCI-H522 lung) was 3410 nM. It also gave a GI50 (HCC-2998 colon) of 2020 nM, a TGI (HCC-2998 colon) of 4070 nM and a GI50 (KM12 colon) of 1860 nM. The TGI (KM12 colon) was 3850 nM, the GI50 (SF-295 CNS) was 2580 nM and the TGI (SF-295 CNS) was 10100 nM. The GI50 (SR leukemia) was 1200 nM, the TGI (SR leukemia) was 5630 nM and the GI50 (UACC-62 melanoma) was 1810 nM. For the same compound, the TGI (UACC-62 melanoma) was 3890 nM, the GI50 (HOP-62 NSCLC) was 2320 nM and the TGI (HOP-62 NSCLC) was 6240 nM. The GI50 (COLO 205 colon) was 2080 nM, the TGI (COLO 205 colon) was 4660 nM and the GI50 (MDA-MB-435) was 2280 nM. It also gave a TGI (MDA-MB-435) of 5800 nM, a GI50 (SNB-19 CNS) of 2340 nM and a TGI (SNB-19 CNS) of 11700 nM. The GI50 (CCRF-CEM leukemia) was 2000 nM, the TGI (CCRF-CEM leukemia) was 5740 nM and the GI50 (BT-549 breast) was 2020 nM. For the same compound, the TGI (BT-549 breast) was 5000 nM, the GI50 (NCI-H23 lung) was 2900 nM and the TGI (NCI-H23 lung) was 10300 nM.
